Data from patent US11752158B2 (priority 2007, dated 2023).
Where “and” joins values, the source holds several entries; their conditions need not be identical. Equal values may be shown once. Entries after “also recorded” stand apart in the source; their conditions may differ.

Experiments:
[1] = system: patients with advanced prostate cancer; conditions: human, in vivo, po
Excerpt: The efficacy and safety of an oral preparation of 25-hydroxyvitamin D2 is examined in a 3-month study of patients with advanced prostate cancer being treated with high-dose calcitriol once per week. For this study, 25-hydroxyvitamin D2 was formulated in soft-gelatin capsules. Forty patients with advanced prostate cancer undergoing treatment with high-dose calcitriol and Docetaxel were divided into two equal groups. Along with weekly calcitriol doses, group #1 receives between 2-20 mcg 25-hydroxyvitamin D2, while group #2 receives placebo. Prior to enrolling, all subjects provide two fasting morning blood samples, separated by at least one week, to establish pre-treatment baseline values of serum calcium, plasma intact PTH, and serum 25-hydroxyvitamin D. Additional fasting blood samples and 24-hour urine collections are obtained from each subject 24 h following the administration of the weekly administration of calcitriol for determination of serum calcium and serum 25-hydroxyvitamin D. Throughout the study, all subjects adhere to a daily intake of approximately 1,000 to 1,500 mg of elemental calcium (from self-selected diets and calcium supplements, as needed) under the ongoing guidance of a dietician. At the conclusion of the study, the laboratory data are analyzed by treatment group and by test formulation after appropriate correction for baseline values.

[2] = Serum metabolites of 25-hydroxyvitamin D3 and 25-hydroxyvitamin D2 (Example 1, FIG. 4 and 5); type: in vivo, rat
Method: (§1) The concentration of total 25-hydroxyvitamin D at 120 hours post initial dose was determined in serum samples using a high-performance liquid chromatographic method using tandem mass spectrometry detection. The method was utilized to determine the individual concentrations of 25-hydroxyvitamin D3 and 25-hydroxyvitamin D2 in serum and the total was determined as a sum of the concentrations. At 24 h post final dose, serum collected from animals was analyzed for changes in levels of 25-hydroxyvitamin D3, 25-hydroxyvitamin D2 and their metabolites.

male Sprague-Dawley rats [3] = assay: Serum calcium levels after 5-day i.v. dosing (Example 1, FIG. 2); type: in vivo, rat; conditions: Group 11: 6 μg/kg 25-hydroxyvitamin D3 alone, 5 day treatment period
Method: (§2) To examine the reduction of toxicity associated with the co-administration of 25-hydroxyvitamin D3 with 25-hydroxyvitamin D2 compared to 25-hydroxyvitamin D3 alone, 90 male Sprague-Dawley rats are treated intravenously for five consecutive days with various combinations of 25-hydroxyvitamin D3 and 25-hydroxyvitamin D2. One day prior to the initiation of the study, rats are randomly selected, assigned to groups and treated as follows in Table 3:
(§3) For each day's treatment of each animal, the appropriate material was administered i.v. Daily treatments were performed within a 3 hours window on each day. On the first day of treatment (pre-dose) and at 24 hours time points on day 2 before the second dose administration (0 being the time of the first injection), blood (˜1 mL) was collected from the jugular vein catheter from animals in Group 1 to 15 into unpreserved tubes. The serum was separated out, transferred into new tubes that were immediately frozen at approximately −80° C. Prior to the sacrifice of all animals at 120 hours on Day 6 blood (˜2 mL) was collected into unpreserved tubes from the jugular vein catheter from all animals. […] For each animal, the necropsy consisted of an external examination, including reference to all clinically recorded lesions, as well as internal “abbreviated” examinations.

[4] = Total serum 25-hydroxyvitamin D by LC-MS/MS (Example 1, FIG. 1); type: in vivo, rat; conditions: indicated dosing, daily for a period of 5 days; 120 hours post initial dose
Method: as §2, §1

male Sprague-Dawley rats [5] = assay: Gross necropsy after 5-day i.v. dosing (Example 1); type: in vivo, rat; conditions: i.v. once a day for 5 days
Method: as §2, §3

[6] = Serum 25-hydroxyvitamin D in end-stage renal disease patients on hemodialysis (Example 4); type: in vivo, human; conditions: i.v. thrice weekly, 20 mcg 25-hydroxyvitamin D3 alone or with 10 mcg 25-hydroxyvitamin D2; first 3 months of dosing, steady state thereafter
Method: (§4) The formulations examined in this study are aqueous isotonic and sterile solutions containing either 20 mcg of 25-hydroxyvitamin D3 alone (test preparation #1) or in combination with 10 mcg 25-hydroxyvitamin D2 (test preparation #2). A total of 75 […] Caucasian, Asian, Hispanic and African-American subjects participate in this study, all of whom are at least 4-months on regular hemodialysis and have serum 25-hydroxyvitamin D levels below 15 ng/mL. Prior to enrolling, all subjects provide two fasting morning blood samples, separated by at least one week, to establish pre-treatment baseline values of serum calcium, plasma intact PTH, and serum 25-hydroxyvitamin D. On the morning of Day 1, the subjects are randomly assigned to one of three treatment groups, and they begin thrice weekly dosing with the test preparation #1 or #2, or with a matching placebo. All dosing occurs during regularly scheduled hemodialysis sessions and is accomplished by gradual injection (over a period of 1 to 5 minutes) into the blood exiting from the hemodialysis machine. […] At the conclusion of the study, the laboratory data are analyzed by treatment group and by test formulation after appropriate correction for baseline values. […]

male Sprague-Dawley rats [7] = assay: Serum calcium levels at day 5 (Example 2, FIG. 6); type: in vivo, rat; conditions: i.v. once a day for 5 days
Method: Another study was carried out to assess the effects of co-administration of 25-hydroxyvitamin D with 25-hydroxyvitamin D2 compared to 25-hydroxyvitamin D3 alone on 102 male Sprague-Dawley rats. Rats about […], about 175-250 g in weight, were divided into groups of six males each. The groups were administered various combinations of 25-hydroxyvitamin D3 and 25-hydroxyvitamin D2 intravenously (or the same volume of control vehicle) once daily via the jugular vein catheter, for five consecutive days, according to Table 5 below.
Dosing was carried out at similar times each day, within a three hour window of the time of last dose. Blood was collected at day 0 (the first day of treatment) for analysis, and animals were monitored twice daily. Animals from all groups were euthanized on day 5, 24 hours after the last dose, and blood was collected by cardiac puncture. All rats were subjected to an abbreviated necropsy.

[8] = system: patients with end-stage renal disease (ESRD); assay: Serum calcium in end-stage renal disease patients on hemodialysis (Example 4); type: in vivo, human; conditions: i.v. thrice weekly
Method: as §4

With `C=C1CC[C@H](O)C/C1=C/C=C1\CCC[C@]2(C)[C@@H]([C@H](C)/C=C/[C@H](C)C(C)(C)O)CC[C@@H]12` [25-hydroxyvitamin D2] the “episodes of hypercalcemia (serum calcium above 10.2 mg/dL)” value [1] was “more frequently observed in the placebo group than in the treatment group” and the “metabolism / catabolism of the prohormone” value ([2]; rat, in vivo) was “catabolized more readily to 24, 25-dihydroxyvitamin D2”.

In the case of `C=C1CC[C@H](O)C/C1=C/C=C1\CCC[C@]2(C)[C@@H]([C@H](C)CCCC(C)(C)O)CC[C@@H]12` [25-hydroxyvitamin D3], the serum calcium levels (male Sprague-Dawley rats [3]) is reported as “highest achieved level of serum calcium; also recorded: hypercalcemia”, the “total serum 25-hydroxyvitamin D” value [4] is reported as “elevation” and the “Gross Necropsy Findings” value (male Sprague-Dawley rats [5]; Group 6: 25-hydroxyvitamin D2 0 μg/kg, 25-hydroxyvitamin D3 0.3 μg/kg) is reported as “None”. The “Gross Necropsy Findings” value (male Sprague-Dawley rats [5]; Group 11: 25-hydroxyvitamin D2 0 μg/kg, 25-hydroxyvitamin D3 6 μg/kg) was “Severe signs of toxicity (blood in the lungs) and 4 of 6 animals treated exhibiting blood in lung tissue and 4/6 animals had”, the “serum 25-hydroxyvitamin D levels” value [6] was “progressively increasing” and the “Serum calcium levels at day 5” value (male Sprague-Dawley rats [7]; 4 μg/kg 25-hydroxyvitamin D3 alone) was “hypercalcemia”. For the same molecule, the “Serum calcium levels at day 5” value (male Sprague-Dawley rats [7]; 8 μg/kg 25-hydroxyvitamin D3 alone) was “hypercalcemia”, the “metabolism / catabolism of the prohormone” value ([2]; observation in rats, serum 24 h post final dose) was “catabolized more readily to the active 1,25-dihydroxyvitamin D3 form” and the mean serum calcium ([8]; 20 mcg 25-hydroxyvitamin D3 alone or with 10 mcg 25-hydroxyvitamin D2, 3-month study) was “increase significantly from baseline”. The “episodes of hypercalcemia (serum calcium above 10.2 mg/dL)” value ([8]; 20 mcg 25-hydroxyvitamin D3 alone, 3-month study) was “more frequently observed”.
